Legend:
518A2 melanoma cells [1] = test system: 518A2 melanoma cells; design: method as in Bär et al. [33]; settings: MTT, value marked * ref Bär et al. [33]; cited from earlier work
518A2 melanoma cells [2] = assay: ROS assay (NBT); type: cell-based, human; settings: 518A2 cells, 1 µM and 5 µM, 24 h
Procedure: To determine cellular ROS levels, 2,2′-bis(4-nitrophenyl)-5,5′-diphenyl-3,3′-(3,3′-dimethoxy-4,4′-diphenylene) di-tetrazolium chloride (NBT) was used. The assay is based on the reduction of a yellow NBT tetrazolium salt to a blue formazan dye. 518A2 melanoma cells were seeded in 96-well flat bottom microtiter plates (Sarstedt) with 100 µL per well and a cell density of 0.1 × 10^6 cells per mL. The cells were allowed to grow overnight, followed by substance treatment with 11.1 µL of tenfold concentrated test compound dilutions and further incubated for 24 h. Then plates were centrifuged, the medium was discarded and 50 µL per well of NBT solution (0.1% in PBS) was added. The plates were further incubated for 4 h, centrifuged again and the medium was discarded. After that, 50 µL of 2M KOH solution and 65 µL DMSO had been added per well, incubation was continued for 30 min. The absorbances at 630 nm und 405 nm were measured, using a plate reader (Tecan). The background absorbance (405 nm) was subtracted from the formazan signal (630 nm). The resulting absorbance is directly proportional to the reactive oxygen species level. The control value was normalized to 100% ROS level, and accordingly, the viability of cells treated with test compounds was calculated. Means and SD were calculated from at least four independent experiments.

[3] = test system: HCT-116^p53−/− (p53 knockout mutant) colon carcinoma cells; design: method as in Bär et al. [33]; settings: MTT, value marked * ref Bär et al. [33]; cited from earlier work
[4] = test system: HeLa cervix carcinoma cells; design: method as in Bär et al. [33]; settings: MTT, value marked * ref Bär et al. [33]; cited from earlier work
[5] = test system: circular plasmid pBR322 DNA; assay: Electrophoretic mobility shift assay (EMSA); type: binding
Procedure: To distinguish whether the DNA interaction is of an electrostatic or covalent nature, a second DNA interaction assay was conducted. 1.5 µg of circular plasmid pBR322 DNA were incubated in TE buffer (10 mM Tris–Cl, 1 mM EDTA, pH 8.0) with different concentrations of test compounds (final concentrations; 5 µM, 10 µM, 25 µM and 50 µM), whereas a corresponding volume of DMSO was added to the control (0 µM) to a final volume of 20 µL of each sample. Samples ware incubated for 16 h at 37 °C and subjected to 1% agarose gel electrophoresis in 0.5 × TBE buffer (45 mM Tris–Cl, 45 mM boric acid, 1.25 mM EDTA, pH 8.0) for 4 h at 66 V. Afterward, the agarose gel was stained for 20 min with EtdBr (10 µg/mL in 0.5 TBE buffer) solution and the result documented using UV excitation.

518A2 melanoma cells [6] = assay: Comet assay; type: cell-based, human; settings: 518A2 cells, 3.3 µM and 33 µM
Procedure: 518A2 melanoma cells were seeded at a concentration of 0.03 × 10^6 cells/mL and a volume of 2 mL seeded in 6-well plates and incubated overnight (37 °C, 95% humidity, 5% CO2). In addition, slides were coated with 1.5% agarose and allowed to harden before being stored in a moist place until the next day. On the second day, a 100-fold substance pre-dilution was added to the cells followed by a further incubation of 3–5 h. The selected concentration range was based on Mendonça et al.. Subsequently, the cells were harvested with trypsin and the cell number was adjusted to 0.02 × 10^6 cells/mL. 0.5% agarose solution was prepared and tempered to a maximum of 50 °C. After mixing 0.4 mL of cell suspension with 1.2 mL of tempered agarose, 200 µL was pipetted onto each of the previously coated slides. After these had hardened, a one-hour incubation followed at 4 °C in lysis buffer. The samples were then electrophoresed at 11 V for 20 min and then incubated for 15 min in neutralization buffer. Finally, the DNA was stained with 30 µL each of 1% ethidium bromide for 30 min, before the slides were washed with PBS for subsequent documentation under a fluorescent microscope with UV excitation (Zeiss Axiovert 135, Ex/Em 300 nm/605 nm).

518A2 melanoma cells [7] = assay: Inhibition of wound healing (scratch migration assay); type: cell-based, human; settings: 518A2 cells, IC50 concentrations, 0-24 h
Procedure: Cells of melanoma cell line 518A2 were seeded in a volume of 500 µL and at a concentration of 0.1 × 10^6 cells/mL in 24-well plates in triplicate. The plate was incubated (37 °C, 95% humidity, 5% CO2) for two days until a confluent monolayer was formed. A 10 µL pipette tip was used to create a wound in the cell lawn, the wound was rinsed with PBS and the medium was changed to a FBS-reduced one. Pictures were taken at first time point (0 h) right before the addition of substance at 100-fold pre-dilution. The plate was then incubated again in the incubator and photos were taken at several more time points (6, 12, and 24 h) [262626].

linear salmon sperm DNA = assay: Ethidium bromide saturation assay; type: binding
Procedure: The interaction of the complexes with linear DNA was assessed using the EtdBr assay. Ethidium bromide intercalates into DNA enhancing its fluorescence, while intercalation is hindered by alterations of the DNA structure e.g., by small molecules interfering with DNA [17]. In wells of a 96-well black flat bottom microtiter plates a solution of 1 µg linear salmon sperm DNA (ThermoFisher) in TE buffer (10 mM Tris–Cl, 1 mM EDTA, pH 8.0) was treated with concentration series (final concentrations; 25 µM, 50 µM, 75 µM and 100 µM) of the compounds, a corresponding amount of DMSO was used as a control (0 µM). After an incubation period of 2 h at 37 °C, 100 µL per well of ethidium bromide solution (10 µg/mL in TE buffer) was added and the plate was incubated for 5 min in the dark. Background samples were prepared analogously but without DNA addition. EtdBr–DNA adduct fluorescence was monitored at an excitation wavelength of 535 nm and an emission wavelength of 595 nm. After background subtraction, changes in fluorescence intensity were calculated in relation to control (set to 100%). Means and SD were calculated from at least three independent experiments.

[8] = Stability in cell culture medium by UV/Vis spectroscopy; type: physicochemical; settings: 0–30 min and 3 days
Description: In a further corroboration of the complex stability, the similarity of the chalcogens sulfur and selenium was exploited. The selenolato complex 10 was synthesized and examined for its stability under identical conditions. Since ^77Se is a 1/2 spin nucleus with roughly 8% natural abundance, its compounds can be investigated directly. Depending on whether a break in the Se–Au or the Au–PR3 bond would occur, the shift would change by several hundred ppm and serve as unequivocal evidence. […] In addition, we investigated the stability of complexes 1 and 5 as representatives of the series of purines and purine nucleosides, respectively, in cell culture medium by UV/Vis spectroscopy.

| SMILES | IC50 (518A2 melanoma cells [1]) [nM] | Intracellular ROS level (518A2 melanoma cells [2]) | IC50 [3] [nM] | IC50 [4] [nM] | DNA interaction (EMSA) [5] | DNA damage (comet assay) (518A2 melanoma cells [6]) | Effect on cell migration (scratch closure) (518A2 melanoma cells [7]) | DNA interaction (ethidium bromide saturation) (linear salmon sperm DNA) | Stability in cell culture medium (UV/Vis) [8] |
| --- | --- | --- | --- | --- | --- | --- | --- | --- | --- |
| CC(=O)OC[C@H]1O[C@@H]([S-])[C@H](OC(C)=O)[C@@H](OC(C)=O)[C@@H]1OC(C)=O.CCP(CC)CC.[Au+] [Auranofin, auranofin] | 1800 ± 30 | highest ROS levels | 5000 ± 200 | 2600 ± 400 | – | – | – | – | – |
| OC[C@H]1O[C@@H](n2cnc3c([S][Au][PH](c4ccccc4)(c4ccccc4)c4ccccc4)ncnc32)[C@H](O)[C@@H]1O [Complex 5, (1,7-Dihydro-6H-purine-9-β-D-ribofuranosyl-6-thiolato) (triphenylphosphane) gold(I)] | – | – | – | – | failed to reveal any positive effects | led to DNA damage | retarded the closure of the scratch | failed to reveal any positive effects | stable under the test conditions |
| Nc1nc([S][Au][PH](c2ccccc2)(c2ccccc2)c2ccccc2)c2ncn([C@@H]3O[C@H](CO)[C@@H](O)[C@H]3O)c2n1 [Complex 6, (2-Amino-1,7-dihydro-6H-purine-9-β-D-ribofuranosyl-6-thiolato) (triphenylphosphane) gold(I)] | – | – | – | – | – | – | even accelerated it | – | – |

From article PMC9653339, “Revisiting the anticancer properties of phosphane(9-ribosylpurine-6-thiolato)gold(I) complexes and their 9H-purine precursors” (Journal of Biological Inorganic Chemistry, 2022)
